Like-named read-outs stand apart in the source and are kept apart here.
Experiments:
[1] = biological target: T1, CDK1 (p34^cdc2, cyclin B) (Homo sapiens, UniProt P06493); experiment: CDK inhibition assay, p34^cdc2 kinase, histone H1 phosphorylation; type: biochemical; conditions: 15 μM ATP, histone H1, 30° C.
T1 construct: made in house; host or cells: Sf9 insect cells (baculovirus co-infection)
Protocol: The controls contain suitable dilutions of DMSO.
2-glycerolphosphate, 1 mM NaF, 1 mM DTT

[2] = biological target: CDK2 (p33^cdk2, cyclin E) (Homo sapiens, UniProt P24941); experiment: CDK inhibition assay, p33^cdk2 kinase, histone H1 phosphorylation;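 further: Baculovirus-expressed kinase/cyclin complex from Sf9 cell extract, 10 min at 30 °C, phosphoproteins separated by SDS gel and quantified by image analysis, activity relative to DMSO control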
Protocol: Cyclin-dependent kinases (p34^cdc2, p33^cdk2) and cyclins (cyclin B, E) are produced in Sf9 insect cells coinfected with appropriate baculoviral constructs. The cells are harvested 68-72 hrs post infection in lysis buffer for 30 min on ice and the soluble fraction is recovered by centrifugation at 14.000 g for 10 min. The protein extract is stored at −80° C.
Lysis buffer: 50mM Tris pH 7.4, 150mM NaCl, 5 mM EDTA, 20 mM NaF, 1% Tween, 1 mM DTT, 0.1 mM PMSF, leupeptine, aprotonine.
To carry out experiments on kinetics under linear conditions, the final point test system for kinase activity measurement is used. The kinase is added to reaction mixture in such a way as to obtain linear activity with respect to the concentration of enzyme and with respect to time.
Kinase activity is determined at 30° C. in the kinase buffer.
Tested compounds are usually dissolved to 100 mM solutions in DMSO, final concentration of DMSO in reaction mixture never exceeds 1%. The controls contain suitable dilutions of DMSO.
After 10 min, addition 3×SDS sample buffer stops the incubations. Phosphorylated proteins are separated electrophoretically using 10% SDS polyacrylamide gel. The measurement of kinase activity is done using digital image analysis.
The kinase activity is expressed as a percentage of maximum activity, the apparent inhibition constants are determined by graphic analysis.
Kinase buffer: 50 mM Hepes pH 7.4, 10 mM MgCl2, 5 mM EGTA, 10 mM

[3] = tested on: MCF7 (human breast adenocarcinoma); experiment: In vitro cytotoxic activity, Calcein AM, three days; type: cell-based
Protocol: (§1) We have been using the following cell lines: HELA (human cervical carcinoma), MCF7 (human breast adenocarcinoma), NIH 3T3 (mouse fibroblasts), HOS (human osteogenic sarcoma), HL 60 (human promyelocytic leukemia), G 361 (human malignant melanoma), K562 (human chronic myeloblastic leukemia), CEM (human lymphoblastoid leukaemia). Tested drugs were added to the cell cultures in six different concentration and kept at 37° C. and 5% CO2 for three days. All cell lines were grown in DMBM medium (Gibco BRL) supplemented with 10% (v/v) fetal bovine serum and L-glutamine and maintained at 37° C. in a humidified atmosphere with 5% CO2. 10^4 cells were seeded into each well of 96 well plate, allowed to stabilize for at least 2 h and then tested compounds were added at various concentrations ranging from 200 to 0.2 μM in triplicates. Three days after drug addition Calcein AM solution (Molecular Probes) was added and let to enter the cells for 1 hour. Fluorescence of viable cells was quantified employing Fluoroskan Ascent (Microsystems).

[4] = tested on: K562 (human chronic myeloblastic leukemia); experiment: as above; type: cell-based; conditions: read-out: K-562 IC50
Protocol: as §1

T1 sequence (P06493 whole entry, species assumed): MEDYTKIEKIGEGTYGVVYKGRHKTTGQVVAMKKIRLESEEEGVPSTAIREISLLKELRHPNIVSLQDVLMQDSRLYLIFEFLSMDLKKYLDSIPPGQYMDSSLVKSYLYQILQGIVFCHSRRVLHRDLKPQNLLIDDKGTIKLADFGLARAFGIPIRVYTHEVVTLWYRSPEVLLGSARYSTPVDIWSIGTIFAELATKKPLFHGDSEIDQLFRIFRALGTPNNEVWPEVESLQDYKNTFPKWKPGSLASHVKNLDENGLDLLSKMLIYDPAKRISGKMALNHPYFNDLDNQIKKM
T1 sequence (P14635 whole entry partner, species assumed): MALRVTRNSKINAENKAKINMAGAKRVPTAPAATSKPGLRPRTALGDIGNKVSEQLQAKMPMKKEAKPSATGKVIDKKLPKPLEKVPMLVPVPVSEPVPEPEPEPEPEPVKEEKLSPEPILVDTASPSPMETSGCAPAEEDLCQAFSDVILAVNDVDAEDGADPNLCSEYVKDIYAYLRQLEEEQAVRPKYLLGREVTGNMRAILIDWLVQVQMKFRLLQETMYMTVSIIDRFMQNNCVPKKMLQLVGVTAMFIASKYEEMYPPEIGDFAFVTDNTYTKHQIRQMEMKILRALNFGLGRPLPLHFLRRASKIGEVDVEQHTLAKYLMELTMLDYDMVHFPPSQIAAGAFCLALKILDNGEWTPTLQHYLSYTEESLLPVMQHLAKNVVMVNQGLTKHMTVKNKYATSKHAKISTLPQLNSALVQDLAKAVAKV

Row | IC50 [1] [µM] | IC50 [2] [µM] | Compound | further results
1 | 8.8 | 9.4 | Cc1n[nH]c2c(NCc3cccc(Cl)c3)ncnc12 [3-chlorobenzylamino / methyl] | –
2 | 4 | 5.2 | Cc1n[nH]c2c(NCc3ccccc3O)ncnc12 [2-hydroxybenzylamino / methyl] | IC50 ([3]; Homo sapiens, MCF7, 72 h): 67 µM; IC50 ([4]; Homo sapiens, K562, 72 h): 55 µM
3 | 24 | 22 | CCc1n[nH]c2c(Nc3ccc(O)c(C(=O)O)c3)ncnc12 [3-carboxy-4-hydroxyanilino / ethyl] | –
4 | 20 | 18 | Cc1n[nH]c2c(NCc3ccc(Cl)cc3)ncnc12 [4-chlorobenzylamino / methyl] | –
5 | 3.1 | 4.2 | CC(C)c1n[nH]c2c(Nc3ccc(O)c(C(=O)O)c3)ncnc12 [3-carboxy-4-hydroxyanilino / isopropyl] | IC50 ([3]; Homo sapiens, MCF7, 72 h): 12 µM; IC50 ([4]; Homo sapiens, K562, 72 h): 25 µM
6 | 18 | 17 | Cc1ccccc1CNc1ncnc2c(C)n[nH]c12 [2-methylbenzylamino / methyl] | –
7 | 1.8 | 0.2 | CC(C)c1n[nH]c2c(NCc3ccc(O)cc3)ncnc12 [4-hydroxybenzylamino / isopropyl, 7-(4-hydroxybenzyl)amino-3-isopropylpyrazolo[4,3-d]pyrimidine] | IC50 ([3]; Homo sapiens, MCF7, 72 h): 152 µM; IC50 ([4]; Homo sapiens, K562, 72 h): > 167 µM
8 | 6.1 | 5.8 | CC(C)c1n[nH]c2c(Nc3cc(N)cc(Cl)c3)ncnc12 [3-chloro-5-aminoanilino / isopropyl] | IC50 ([3]; Homo sapiens, MCF7, 72 h): 29 µM; IC50 ([4]; Homo sapiens, K562, 72 h): 35 µM
9 | 45 | 41 | CCc1n[nH]c2c(NCC=C(C)C)ncnc12 [isopentenylamino / ethyl] | –
10 | 0.9 | – | COc1ccc(CNc2ncnc3c(C(C)C)n[nH]c23)cc1O [7-(3-hydroxy-4-methoxybenzyl)amino-3-isopropylpyrazolo[4,3d]pyrimidine] | IC50 ([2]; read-out: CDK2 IC50, 15 μM ATP, histone H1, 30° C.): 0.2 µM; IC50 [3]: 45 µM; IC50 [4]: 68 µM
11 | 34 | 40 | Cc1n[nH]c2c(Nc3ccc(O)c(C(=O)O)c3)ncnc12 [3-carboxy-4-hydroxyanilino / methyl] | –
12 | 15 | 14 | CCc1n[nH]c2c(NCc3ccccc3C)ncnc12 [2-methylbenzylamino / ethyl] | –
13 | 39 | 42 | CCc1n[nH]c2c(NC3CCCCC3)ncnc12 [cyclohexylamino / ethyl] | –
14 | 2.5 | 2.8 | CC(C)c1n[nH]c2c(Nc3ccc(C(=O)O)c(Cl)c3)ncnc12 [3-chloro-4-carboxyanilino / isopropyl] | IC50 ([3]; Homo sapiens, MCF7, 72 h): 46 µM; IC50 ([4]; Homo sapiens, K562, 72 h): 69 µM
15 | 29 | 46 | Cc1n[nH]c2c(NC3CCCC3)ncnc12 [cyclopentylamino / methyl] | –
16 | 16 | 18 | Cc1n[nH]c2c(Nc3ccc(Br)cc3)ncnc12 [4-bromoanilino / methyl] | –
17 | 18 | 17 | CCc1n[nH]c2c(NCc3cccc(C)c3)ncnc12 [3-methylbenzylamino / ethyl] | –
18 | 8.2 | 5.3 | CCc1n[nH]c2c(NCc3ccco3)ncnc12 [furfurylamino / ethyl] | IC50 ([3]; Homo sapiens, MCF7, 72 h): 135 µM; IC50 ([4]; Homo sapiens, K562, 72 h): > 167 µM
19 | 20 | 15.5 | CCc1n[nH]c2c(Nc3cc(N)cc(Cl)c3)ncnc12 [3-chloro-5-aminoanilino / ethyl] | –
20 | 14 | 20 | CCc1n[nH]c2c(Nc3ccccc3)ncnc12 [anilino / ethyl] | –
21 | 34 | 32 | Cc1n[nH]c2c(NC3CCCCC3)ncnc12 [cyclohexylamino / methyl] | –
22 | 22 | 21 | Cc1n[nH]c2c(Nc3ccccc3)ncnc12 [anilino / methyl] | –
23 | 25 | 29 | C=CCNc1ncnc2c(CC)n[nH]c12 [allylamino / ethyl] | –
24 | 14 | 16 | CCc1n[nH]c2c(Nc3ccc(Cl)cc3)ncnc12 [4-chloroanilino / ethyl] | –
25 | 26 | 19 | CCc1n[nH]c2c(NCc3ccc(Cl)cc3)ncnc12 [4-chlorobenzylamino / ethyl] | –
26 | 19 | 24 | Cc1n[nH]c2c(Nc3cc(N)cc(Cl)c3)ncnc12 [3-chloro-5-aminoanilino / methyl] | –
27 | 22 | 18 | CCc1n[nH]c2c(Nc3ccc(Br)cc3)ncnc12 [4-bromoanilino / ethyl] | –
28 | 27 | 28 | Cc1n[nH]c2c(Nc3ccc(Cl)c(N)c3)ncnc12 [3-amino-4-chloroanilino / methyl] | –
29 | 42 | 48 | C=CCNc1ncnc2c(C)n[nH]c12 [allylamino / methyl] | –
30 | 12 | 12 | CCc1n[nH]c2c(NCc3ccccc3Cl)ncnc12 [2-chlorobenzylamino / ethyl] | –

The next lines start with the compound.

Row | Compound | IC50 [1] [µM] | IC50 [2] [µM] | further results
31 | CCc1n[nH]c2c(NCc3cccc(Cl)c3)ncnc12 [3-chlorobenzylamino / ethyl] | 9.7 | 10.2 | –
32 | CC(C)c1n[nH]c2c(NCc3ccccc3Br)ncnc12 [2-bromobenzylamino / isopropyl, 7-(2-bromobenzyl)amino-3-isopropylpyrazolo[4,3-d]pyrimidine] | 7 | 9 | IC50 ([3]; Homo sapiens, MCF7, 72 h): 42 µM; IC50 ([4]; Homo sapiens, K562, 72 h): 57 µM
33 | Cc1n[nH]c2c(NC3CCC(N)CC3)ncnc12 (stereo not drawn) [4-aminocyclohexylamino / methyl] | – | – | IC50 [3]: 75 µM; IC50 [4]: 115 µM
34 | CCCCCNc1ncnc2c(CC)n[nH]c12 [pentylamino / ethyl] | – | – | IC50 [3]: 41 µM; IC50 [4]: 62 µM
35 | CCc1n[nH]c2c(NC3CCC(N)CC3)ncnc12 (stereo not drawn) [4-aminocyclohexylamino / ethyl] | – | – | IC50 [3]: 71 µM; IC50 [4]: 110 µM
36 | COc1ccc(O)c(CNc2ncnc3c(C(C)C)n[nH]c23)c1 | – | – | IC50 [3]: 0.9 µM; IC50 [4]: 1.2 µM
37 | COc1ccc(CNc2ncnc3c(C(C)C)n[nH]c23)c(O)c1 | – | – | IC50 [3]: 0.2 µM; IC50 [4]: 0.5 µM
38 | Cc1n[nH]c2c(Nc3ccc(C(=O)O)c(Cl)c3)ncnc12 [3-chloro-4-carboxyanilino / methyl] | 25 | 28 | –
39 | CCc1n[nH]c2c(Nc3ccc(Cl)c(N)c3)ncnc12 [3-amino-4-chloroanilino / ethyl] | 23 | 22 | –
40 | CC(C)c1n[nH]c2c(NCc3ccccc3N)ncnc12 [2-aminobenzylamino / isopropyl] | – | – | IC50 [3]: 0.8 µM; IC50 [4]: 2.1 µM
41 | CCc1n[nH]c2c(NCc3ccccc3Br)ncnc12 [2-bromobenzylamino / ethyl] | – | – | IC50 [3]: 54 µM; IC50 [4]: 60 µM
42 | CCCCCNc1ncnc2c(C)n[nH]c12 [pentylamino / methyl] | – | – | IC50 [3]: 45 µM; IC50 [4]: 67 µM
43 | Cc1n[nH]c2c(NCc3ccccc3)ncnc12 [benzylamino / methyl] | – | – | IC50 [3]: 67 µM; IC50 [4]: 29 µM
44 | CCc1n[nH]c2c(Nc3ccc(Cl)c(C(=O)O)c3)ncnc12 [3-carboxy-4-chloroanilino / ethyl] | 38 | 40 | –
45 | CCc1n[nH]c2c(NC3CCCC3)ncnc12 [cyclopentylamino / ethyl] | 32 | 32 | –
46 | CCc1n[nH]c2c(Nc3ccc(N)c(Cl)c3)ncnc12 [3-chloro-4-aminoanilino / ethyl] | 35 | 28 | –
47 | COc1ccc(CNc2ncnc3c(C)n[nH]c23)cc1 [4-methoxybenzylamino / methyl] | – | – | IC50 [3]: 35 µM; IC50 [4]: 53 µM
48 | COc1cccc(CNc2ncnc3c(C(C)C)n[nH]c23)c1O | – | – | IC50 [3]: 0.6 µM; IC50 [4]: 0.8 µM
49 | CCc1n[nH]c2c(NCc3ccc(OC)c(O)c3)ncnc12 [3-hydroxy-4-methoxybenzylamino / ethyl] | – | – | IC50 [3]: 52 µM; IC50 [4]: 72 µM
50 | Cc1cccc(CNc2ncnc3c(C)n[nH]c23)c1 [3-methylbenzylamino / methyl] | 28 | 31 | –
51 | CCc1n[nH]c2c(Nc3ccc(C(=O)O)c(Cl)c3)ncnc12 [3-chloro-4-carboxyanilino / ethyl] | 36 | 32 | –
52 | Cc1n[nH]c2c(Nc3ccc(Cl)c(C(=O)O)c3)ncnc12 [3-carboxy-4-chloroanilino / methyl] | 24 | 29 | –
53 | COc1ccc(CNc2ncnc3c(C)n[nH]c23)cc1O [3-hydroxy-4-methoxybenzylamino / methyl] | – | – | IC50 [3]: 58 µM; IC50 [4]: 79 µM
54 | Cc1n[nH]c2c(NCc3ccc(O)cc3)ncnc12 [4-hydroxybenzylamino / methyl] | – | – | IC50 [3]: > 167 µM; IC50 [4]: > 167 µM
55 | CC(C)=CCNc1ncnc2c(C)n[nH]c12 [isopentenylamino / methyl] | 45 | 44 | –
56 | Cc1n[nH]c2c(NCc3ccccc3Br)ncnc12 [2-bromobenzylamino / methyl] | – | – | IC50 [3]: 56 µM; IC50 [4]: 68 µM
57 | Cc1n[nH]c2c(Nc3ccc(Cl)cc3)ncnc12 [4-chloroanilino / methyl] | 26 | 28 | –
58 | CCc1n[nH]c2c(NCc3ccc(OC)cc3)ncnc12 [4-methoxybenzylamino / ethyl] | – | – | IC50 [3]: 31 µM; IC50 [4]: 48 µM

From patent US20070167466A1, “"Pyrazolo [4,3-d]pyrimidines, processes for their preparation and methods of use"” (priority 2003, published 2007)
